Series [1] addresses T1, hTGR5 (Homo sapiens, UniProt Q8TDU6).
T1 sequence (Q8TDU6 1-330): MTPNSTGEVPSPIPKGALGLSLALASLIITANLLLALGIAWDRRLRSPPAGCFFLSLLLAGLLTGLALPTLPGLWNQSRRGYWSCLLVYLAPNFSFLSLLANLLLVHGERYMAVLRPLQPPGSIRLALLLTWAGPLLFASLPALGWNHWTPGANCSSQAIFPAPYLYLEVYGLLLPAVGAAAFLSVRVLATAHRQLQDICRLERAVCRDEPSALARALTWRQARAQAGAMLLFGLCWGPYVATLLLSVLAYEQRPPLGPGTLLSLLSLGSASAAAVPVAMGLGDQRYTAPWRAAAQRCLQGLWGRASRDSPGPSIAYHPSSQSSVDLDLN
Nature of the series: Transactivation assay (CRE-driven luciferase reporter) on hTGR5. The series is classed as cell-based. As for the experimental part:
CHO cells were plated in 96-well plates at a density of 3.5×10^4 cells/well, cultured for 24 h, and then transfected with 150 ng of human (h) TGR5 expression plasmid (pCMVSPORT6/hTGR5) and 100 ng of cAMP-responsive element (CRE)-driven luciferase reporter plasmid (pCRE-Luc) in each well using Lipofectamine 2000 reagent (Invitrogen) according to the manufacturer's instructions. After 6 h incubation, cells were washed once with phosphate-buffered saline (PBS) and medium was exchanged for DMEM containing 0.1% (w/v) bovine serum albumin (BSA). After incubation for another 18 h, cells were treated for 5 h with different concentrations of each compound in fresh DMEM containing 0.1% (w/v) BSA.
For β-galactosidase assays, 10 μl of cell lysate was mixed with 100 μl of Buffer Z [60 mM Na2HPO4, 10 mM KCl, 1 mM MgSO4, 50 mM β-mercaptoethanol and 0.75 mg/ml o-nitrophenyl-β-D-galactopyranoside (ONPG)] and incubated at 37° C. for 0.5-3 h. Reactions were stopped by adding 50 μl of Stop buffer (1M Na2CO3) and the optical density at 420 nm was determined.
(§1) EC50 values were determined by probit analysis.

Series [2] deals with T1, hTGR5. Nature of the series: FRET-cAMP on TGR5 over-expressing HEH293 cells. Type of series: cell-based.
Protocol: Assays were performed in triplicate or quadruplicate for each condition. EC50 values were determined by probit analysis. […] After subtracting the average value of the basal (vehicle-treated) condition, values were applied to EC50 and/or efficacy determinations. Calculation of average EC50 and comparison of the EC50 between different compounds were done after transformation to logarithms.
For a further series, the target named is T2, VDR (Homo sapiens, UniProt P11473).
T2 sequence (P11473 1-427): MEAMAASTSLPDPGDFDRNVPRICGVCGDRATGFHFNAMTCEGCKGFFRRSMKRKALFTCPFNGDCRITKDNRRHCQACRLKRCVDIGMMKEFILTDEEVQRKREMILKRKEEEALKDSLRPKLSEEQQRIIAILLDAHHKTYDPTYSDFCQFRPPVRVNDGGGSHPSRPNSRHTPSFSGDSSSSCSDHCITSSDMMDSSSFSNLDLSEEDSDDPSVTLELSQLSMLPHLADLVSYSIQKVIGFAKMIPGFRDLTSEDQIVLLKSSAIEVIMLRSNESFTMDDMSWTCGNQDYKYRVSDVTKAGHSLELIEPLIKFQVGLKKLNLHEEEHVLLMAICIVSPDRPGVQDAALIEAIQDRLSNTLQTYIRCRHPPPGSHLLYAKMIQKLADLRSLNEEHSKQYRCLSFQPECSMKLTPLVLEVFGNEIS
Nature of the series: NR selectivity assay VDR. Conditions: unnamed ref standard 0.005 μM.

For another series, the target named is T3, PPARδ (Homo sapiens, UniProt Q03181).
T3 sequence (Q03181 1-441): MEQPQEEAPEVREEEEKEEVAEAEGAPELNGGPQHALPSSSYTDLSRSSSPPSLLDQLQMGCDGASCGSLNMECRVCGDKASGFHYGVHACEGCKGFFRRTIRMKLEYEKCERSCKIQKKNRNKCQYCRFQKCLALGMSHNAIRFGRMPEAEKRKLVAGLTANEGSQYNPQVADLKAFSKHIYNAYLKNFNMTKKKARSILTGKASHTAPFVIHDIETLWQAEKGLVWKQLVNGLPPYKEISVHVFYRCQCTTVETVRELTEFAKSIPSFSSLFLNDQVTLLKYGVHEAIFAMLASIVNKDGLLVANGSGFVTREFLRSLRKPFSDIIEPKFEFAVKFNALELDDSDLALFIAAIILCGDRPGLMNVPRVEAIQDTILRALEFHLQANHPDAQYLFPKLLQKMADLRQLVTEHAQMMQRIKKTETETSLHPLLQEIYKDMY
Nature of the series: NR selectivity assay PPARδ. Conditions: unnamed ref standard 0.004 μM.

The target in another series is T4, CAR (Homo sapiens, UniProt Q14994).
T4 sequence (Q14994 1-352): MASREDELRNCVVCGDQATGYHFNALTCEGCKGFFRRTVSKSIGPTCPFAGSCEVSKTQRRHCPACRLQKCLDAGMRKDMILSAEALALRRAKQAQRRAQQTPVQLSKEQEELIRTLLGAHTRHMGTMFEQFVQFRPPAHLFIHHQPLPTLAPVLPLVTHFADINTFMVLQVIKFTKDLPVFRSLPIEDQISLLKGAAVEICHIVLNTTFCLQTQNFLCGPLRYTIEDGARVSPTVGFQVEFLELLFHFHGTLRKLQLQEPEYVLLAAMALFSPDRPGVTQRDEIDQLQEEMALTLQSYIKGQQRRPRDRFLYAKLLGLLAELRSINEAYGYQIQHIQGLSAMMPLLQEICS
In words: CAR coactivator recruitment (Lanthascreen). Type of series: biochemical. On the procedure: (§2) The selectivity of compounds of the invention was evaluated using assay methods known in the art. Specifically, the following assay methods were used: • FXR and LXR: Coactivator Recruitment (alphascreen); • TGR5: cAMP level on human intestinal cell line (NCI-H716); • PXR: Ligands Competition assay (Binding Assay) • CAR: Coactivator Recruitment (Lanthascreen)
(In general: TR-FRET usually uses a lanthanide donor and a delayed reading to cut background.)

Series [3] has as its target T1, hTGR5. Nature of the series: FRET (cAMP) level in NCI-H716 human intestinal cell line. The series is classed as cell-based. As for the experimental part: as §1, §2
Series [4] is described as follows: Critical micellar concentration by surface tension (maximum bubble-pressure method). Type of series: physicochemical. As for the experimental part:
The critical micellar concentration (CMC) was determined by surface tension (ST) measurements using a maximum bubble-pressure method which give surface tension values slightly affected by potential impurities like static methods are. The tensiometer was a […] Research Corp., Milwaukee, Wis.) equipped with two glass probes of 0.5 and 4.0 mm diameters connected to a source of nitrogen. The bubble frequency was 1 bubble/second in distilled water at 26° C. (P=2.7 atm) and the calibration was made with double-distilled water and methanol. The surface tension of BA sodium salts solutions in NaCl 0.15 M was measured at various concentrations inside the 0.13-50 mM range. The surface tension values were plotted against the logarithm of the bile salt concentration; the regression lines corresponding to the two parts of the curve (monomeric and micellar phases) were calculated using the method of least squares, and the intersection of the lines was taken as the CMC value. From the ST vs concentration curves the value of the surface tension at the CMC (equilibrium between monomers and multimers species) was also calculated giving information about the detergency power which is related to the size of the micelles with associate surface tension lowering capacity. The CMC was evaluated by surface tension measurements in non equilibrium conditions i.e. in conditions that impurities slightly affect the surface tension results (FIG. 1).

Structures are written as SMILES. Structures can show the parent of a compound that is named as a salt. Some results are limits rather than exact numbers.

Consider `CCC1C(O)C2C3CCC(C(C)CC(C)OS(=O)(=O)O)C3(C)CCC2C2(C)CCC(O)CC12` [Compound 2A, 3α,7α,23-trihydroxy-6α-ethyl-23(S)-methyl-24-nor-5β-cholan-23-sulfate Sodium Salt], for which the EC50 (as a rule, the concentration giving half of the maximal effect) on hTGR5 [1] was found to be 1200 nM; on hTGR5 [2] it was 25 nM; at CAR, 84 µM; on hTGR5 [3], 1600 ± 300 nM. Besides, the “VDR EC50” value on VDR is “No”. In addition, on PPARδ, the “PPARδ EC50” value is given as “No”.

In the case of `CC[C@H]1[C@@H](O)[C@@H]2[C@H](C[C@H](O)[C@]3(C)[C@@H]([C@H](C)CCCS(=O)(=O)[O-])CC[C@@H]23)[C@@]2(C)CC[C@@H](O)C[C@@H]12.[Na+]` [Compound 3A, 3α,7α,12α-trihydroxy-6α-ethyl-5β-cholan-24-sulfonate Sodium Salt], the EC50 on hTGR5 [1] is 600 nM; at hTGR5 [2], 11 nM; on CAR it was > 250 µM; on hTGR5 [3], 700 ± 200 nM. The “VDR EC50” value on VDR is on record as “No”. Besides, on PPARδ, the “PPARδ EC50” value is recorded as “No”. The “surface tension lowering capacity” value in series [4] (NaCl […]) is “high surface tension lowering capacity”. The “CMC […] Na+” value in series [4] ([…] NaCl water solution) is recorded as 2.8 mM. In series [4] ([…] NaCl water solution), the “STCMC (surface tension at CMC)” value turned out to be 43.4 Dyne/cm.

(Values after patent publication US8796249B2, “TGR5 modulators and methods of use thereof” (Intercept Pharmaceuticals, Inc., priority 2008, dated 2014).)
